Literature values, collected in article PMC3303928 (Bioorganic & medicinal chemistry, 2012).

Conditions: animal tests, racemic mixtures (and their corresponding 3R,4R stereoisomers)

| SMILES | blood-brain barrier (BBB) penetration |
| --- | --- |
| Cc1cc(N)nc(C[C@H]2CNC[C@H]2OCCNCCc2cccc(F)c2)c1 [Compound 3] | minimal |
| Cc1cc(N)nc(C[C@H]2CNC[C@H]2NCCNCCc2cccc(F)c2)c1 [Compound 1] | minimal |
